{"source": "patent US20250195491A1", "about": "(AEVIS BIO, INC., priority 2022, published 2025)", "key": {"iNOS and COX-2": {"test_system": "iNOS and COX-2", "test": "iNOS and COX-2 immunoblotting in LPS-stimulated BV-2 cells", "format": "cell-based, mouse", "details": "BV-2, 30, 10, or 3.33 μM, LPS 1 μg/mL 24 hours, FIG. 6C", "protocol": "(§1) To further confirm the oxidative stress suppression effect, the content of nitrite released due to an inflammatory response and the expression levels of iNOS, which is an enzyme that produces nitric oxide, and COX-2, which is cyclooxygenase-2, were determined in mouse microglial cells (BV-2, ATCC, Manassas, VA, USA).\n(§2) To determine the content of nitrite and the protein expression levels of iNOS and COX-2, BV-2 was seeded in a 12-well plate (Corning, MD, USA) at 1.5×10^5 cells/well, and cultured using a DMEM medium (Corning, MD, USA) containing 10% fetal bovine serum (Corning, MD, USA) and 100 U/mL of penicillin/streptomycin (Corning, MD, USA) at 37° C. in a 5% CO2 incubator for one day for stabilization. […] 1 μg/mL of LPS (Sigma, USA) was added to all experimental groups excluding the non-inflammation-induced group and allowed to react at 37° C. in a 5% CO2 incubator for 24 hours.\nThe cells from which the cell culture medium was removed were disrupted by adding a RIPA buffer containing a protease inhibitor cocktail (Thermo Fisher Scientific), and centrifuged at 14,000 rpm for 15 minutes at 4° C. to obtain a cell extract. Equal amounts of the cell extract were loaded, and proteins were separated through SDS-PAGE and then transferred to a PVDF membrane. […]"}, "TNF-α, IL-1β, and IL-6": {"test_system": "TNF-α, IL-1β, and IL-6", "test": "Pro-inflammatory cytokine mRNA (RT-PCR) in LPS-stimulated BV-2 cells", "format": "cell-based, mouse", "details": "BV-2, 30, 10, or 3.33 μM, LPS 1 μg/mL 6 hours, FIG. 5B", "protocol": "as §2, with “BV-2” for “To determine the content of nitrite and the protein expression levels of iNOS and COX-2, BV-2”, “plated” for “seeded”, “6-well” for “12-well”, “5×10^5” for “1.5×10^5”, “6” for “24”\nThe drug-treated BV-2 underwent RNA prep according to kit manual using an RNA prep kit (Monarch Total RNA Miniprep kit, NEB, UK), and the concentration was measured using a nanophotometer (NP80, Implen, Germany). According to the concentration of each RNA sample, 1 μg of RNA was added and cDNA was synthesized according to the manual of the cDNA synthesis kit (LunaScript RT SuperMix kit, NEB, UK).\nThe expression level of each cytokine in the synthesized cDNA was analyzed and compared using Real-Time PCR (StepOne™Bioscience, USA) equipment. […] The Cr value for the gene of each sample obtained through real-time PCR was normalized by the value of the internal control gene (GAPDH) of each sample, the expression level was estimated inversely by 2ΔΔCT calculation, and the resulting value of each group was quantified and expressed as a percentage relative to the LPS-only treatment group."}, "BV-2 cells": {"test_system": "BV-2 cells", "test": "Nitrite content in culture medium of LPS-stimulated BV-2 cells (Griess)", "format": "cell-based, mouse", "details": "BV-2, 30, 10, or 3.33 μM, LPS 1 μg/mL 24 hours, FIG. 6B", "protocol": "as §1, §2\nThe cell culture solution was collected to measure the content of nitrite, and centrifuged at 3,000 rpm for 5 minutes to obtain a supernatant. The concentration of nitrite in the cell culture was measured using a microplate reader (NEO2MALPHAB Synergy Neo-2, BioTek, CA, US) according to the manual of the Griess Reagent System (#G2930, Promega, WI, USA)."}, "Aiolos and Ikaros": {"test_system": "Aiolos and Ikaros", "test": "Aiolos and Ikaros degradation by immunoblotting in MM.1S cells", "format": "cell-based, human", "details": "immunoblot", "protocol": "To this end, the MM.1S cell line was cultured in an RPMI medium (Corning, MD, USA) supplemented with 10% fetal bovine serum (Corning, MD, USA), 100 U/mL of penicillin (Corning, MD, USA), and 100 μg/mL of streptomycin (Corning, MD, USA) at 37° C. in a 5% CO2 incubator. […] The cells were disrupted by adding a RIPA buffer containing a protease inhibitor cocktail (Thermo Fisher Scientific) and centrifuged at 14,000 rpm for 15 minutes at 4° C. to obtain a cell extract. Equal amounts of the cell extract were loaded, and proteins were separated through SDS-PAGE and then transferred to a PVDF membrane. The protein-transferred membrane was blocked using skim milk, incubated with a primary antibody for 3 hours at room temperature, and then incubated with an HRP-conjugated secondary antibody for 1 hour at room temperature. The resulting product was washed with TBS-T three times between steps. Detection was performed using a chemoluminescence reagent (Thermo Fisher Scientific), and confirmed using Chemidoc (iBright CL1500, Invitrogen, CA, USA). Aiolos (#15103), Ikaros (#9034) and GAPDH (#2118S) antibodies used as primary antibodies and a secondary antibody were purchased from Cell Signaling Technology (Danvers, MA, USA).\nAdditionally, the expression of Aiolos and Ikaros, mediated by 3-MP, was confirmed over time. […]"}}}
{"smiles": "Nc1cccc2c1C(=S)N(C1CCC(=O)NC1=O)C2=O", "note": "(centres unmarked) [3-MP, 3-thiopomalidomide]", "values": [{"measurement": "expression of oxidative stress-associated proteins (iNOS and COX-2)", "setting": "iNOS and COX-2", "value": "effectively reduced"}, {"measurement": "pro-inflammatory cytokine inhibition effect (mRNA)", "setting": "TNF-α, IL-1β, and IL-6", "value": "higher pro-inflammatory cytokine inhibition effect than pomalidomide"}, {"measurement": "amount of residual nitrite released by LPS", "setting": "BV-2 cells", "value": "effectively reduced the amount of the residual nitrite released by LPS, compared to pomalidomide"}, {"measurement": "expression of Aiolos and Ikaros over time", "setting": "Aiolos and Ikaros; 10 μM, 1, 4, 8, 12, or 24 hours, FIG. 3B", "value": "does not reduce the expression of Aiolos and Ikaros"}, {"measurement": "expression of Aiolos and Ikaros, by concentration", "setting": "Aiolos and Ikaros; 0.000128-10 μM, 4 hours, FIG. 3A", "value": "does not reduce the expression of Aiolos and Ikaros"}]}
